According to patent US12384769B2, “Heteroaryl-substituted aminoalkyl azole compounds as pesticides” (Elanco Animal Health GmbH, priority 2019, dated 2025):

What was measured:
Assay type in all cases: in vivo
Spodoptera frugiperda = Spodoptera frugiperda spray test; settings: in Zea mays, 168 h, read-out: activity (mortality)
Procedure, shortened: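 Larvae of fall armyworm placed on dried maize leaf sections previously sprayed with emulsified compound (acetone/DMF solvent, water with 1000 ppm emulsifier). Percent of caterpillars killed recorded on day 7, 0–100% scale.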

[1] = test system: Rhipicephalus microplus (strain Parkhurst, resistant against synthetic pyrethroids); assay: Rhipicephalus microplus in-vitro contact test, larval cattle tick (BOOPMI Contact); settings: 5 μg/cm^2 (=500 g/ha), after 48 hours, read-out: activity (efficacy, larvae dead or moribund)
Procedure, shortened: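 Efficacy, expressed as percentage of larvae dead or moribund, is judged by negative geotactic behaviour 48 h after larvae (20-50 per tube) enter tubes whose inner walls carry a dried acetone film of compound, 5 μg/cm² at 900 ppm. Incubation: horizontal, 27 °C, 85% relative humidity.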

Boophilus microplus = Boophilus microplus injection test (BOOPMI Injection); settings: Rhipicephalus microplus, 168 h, injection into adult engorged female ticks, egg deposition after 7 days, read-out: activity (efficacy, infertile eggs); for pest or weed control at 0.004 mg: 4 μg/animal; for pest or weed control at 0.02 mg: 20 μg/animal
Procedure, shortened: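 Adult engorged female ticks (5 per group) injected into the abdomen with 1 μL compound in DMSO, then held in a climate chamber. Fertile egg deposition scored after 7 days, with unclear eggs kept until hatching (~42 days). Efficacy 100% = all eggs infertile, 0% = all fertile.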

Rhipicephalus sanguineus = Rhipicephalus sanguineus in-vitro contact test, adult brown dog ticks (RHIPSA Contact); settings: 5 μg/cm^2 (=500 g/ha), after 48 hours, read-out: activity (efficacy, ticks dead or moribund)
Protocol: Rhipicephalus sanguineus—in-Vitro Contact Tests with Adult Brown Dog Ticks (RHIPSA Contact)
(§1) 9 mg compound is solved in 1 ml acetone and diluted with acetone to the desired concentration. 250 μl_, of the test solution is filled in 25 ml glass test tubes and homogeneously distributed on the inner walls by rotation and tilting on a shaking device (2 h at 30 rpm). With a compound concentration of 900 ppm, an inner surface of 44.7 cm^2 and a homogeneous distribution, a dose of 5 μg/cm^2 is achieved.
(§2) After the solvent has evaporated, each test tube is filled with 5-10 adult brown dog ticks (Rhipicephalus sanguineus), closed with a perforated lid and incubated in a lying position at room temperature and relative humidity. After 48 hours efficacy is determined. The ticks are patted on the ground of the tubes and are incubated on a heating plate at 45-50° C. for at most 5 minutes Immotile or uncoordinated moving ticks, which are not able to escape the heat by climbing upwards, are marked as dead or moribund.
An efficacy of 100% means all ticks are dead or moribund; 0% means no ticks are dead or moribund.

Diabrotica balteata = Diabrotica balteata spray test; settings: 168 h, wheat seeds, after 7 days, read-out: activity (efficacy, seedlings grown); for pest or weed control at 160 µg/disc, 500 g/ha: 500 g/ha (=160 μg/well)
Procedure, shortened: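 Efficacy was read 7 days after infesting each unit with 10–20 banded cucumber beetle larvae, as % of seedlings growing like untreated, uninfested controls. Before infestation, wheat seeds germinated 1 day on agar (5 per well) were sprayed with the active ingredient. The active was formulated in acetone/DMF and diluted in water containing emulsifier.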

Ctenocephalides felis [2] = assay: Ctenocephalides felis oral test (CTECFE); settings: 48 h, 100 ppm in cattle blood, after 2 days
Procedure, shortened: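 About 20 adult unfed fleas fed through parafilm on cattle blood held at 37° C and dosed with compound from a DMSO concentrate; flea chamber at room temperature. Percent mortality scored after 2 days.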

Ctenocephalides felis [3] = assay: Ctenocephalides felis in-vitro contact test, adult cat flea; settings: 5 μg/cm^2 (=500 g/ha), after 48 hours, read-out: activity (efficacy, fleas dead or moribund)
Protocol: Ctenocephalides felis—in-Vitro Contact Tests Adult Cat Flea
as §1, with “[…]” for “250 μl_,”
as §2, with “cat fleas (Ctenocephalides felis),” for “brown dog ticks (Rhipicephalus sanguineus),”, “fleas” for “ticks”, “fleas,” for “ticks,”
An efficacy of 100% means all fleas are dead or moribund; 0% means no fleas are dead or moribund.

Compound | mortality at 500 g/ha (Spodoptera frugiperda) | pest or weed control at 5 µg/cm2 [1] | pest or weed control at 0.004 mg (Boophilus microplus) | pest or weed control at 0.02 mg (Boophilus microplus) | pest or weed control at 5 µg/cm2, 5 µg/cm2 (Rhipicephalus sanguineus) | pest or weed control at 160 µg/disc, 500 g/ha (Diabrotica balteata) | mortality at 100 ppm (Ctenocephalides felis [2]) | mortality at 100 g/ha (Spodoptera frugiperda) | pest or weed control at 100 g/ha (Diabrotica balteata) | pest or weed control at 5 µg/cm2, 5 µg/cm2 (Ctenocephalides felis [3])
C[C@H](Nc1nc2cc(Cl)cc(C(F)(F)F)c2o1)c1ncnn1-c1ncccn1 [Example I-090, 5-Chlor-N-{(1S)-1-[1-(pyrimidin-2-yl)-1H-1,2,4-triazol-5-yl]ethyl}-7-(trifluormethyl)-1,3-benzoxazol-2-amin] | 100% | 100% | 80% | 100% | 100% | 100% |  |  |  | 
C[C@H](Nc1nc2cc(C(F)(F)F)cc(Br)c2o1)c1ncnn1-c1ncccn1 [Example I-034] | 100% | 90% | 100% | 100% | 100% | 80% | 100% | 100% | 100% | 
C[C@H](Nc1nc2cc(C(F)(F)F)cc(Br)c2o1)c1ncnn1-c1ccc(C#N)cn1 [Example I-055, 6-[5-[(1S)-1-{[7-Brom-5-(trifluormethyl)-1,3-benzoxazol-2-yl]amino}ethyl]-1H-1,2,4-triazol-1-yl}nicotinonitril] | 100% | 100% | 80% | 100% | 100% | 100% |  | 100% | 100% | 
C[C@H](Nc1nc2cc(C(F)(F)F)cc(Cl)c2o1)c1ncnn1-c1ncc(Cl)cn1 [Example I-036, 7-chloro-N-{(1S)-1-[1-(5-chloropyrimidin-2-yl)-1H-1,2,4-triazol-5-yl]ethyl}-5-(trifluoromethyl)-1,3-benzoxazol-2-amine] |  | 100% | 100% | 100% | 100% |  | 100% | 100% | 100% | 80%
C[C@H](Nc1nc2cc(C(F)(F)F)c(Cl)cc2o1)c1ncnn1-c1ncc(Br)cn1 [Example I-062, N-{(1S)-1-[1-(5-Brompyrimidin-2-yl)-1H-1,2,4-triazol-5-yl]ethyl}-6-chlor-5-(trifluormethyl)-1,3-benzoxazol-2-amin] | 100% | 100% | 100% | 100% | 100% | 100% |  | 100% | 100% | 100%
C[C@H](Nc1nc2cc(C(F)(F)F)cc(Cl)c2o1)c1ncnn1-c1cnccn1 [Example I-039, 7-chloro-N-{(1S)-1-[1-(pyrazin-2-yl)-1H-1,2,4-triazol-5-yl]ethyl}-5-(trifluoromethyl)-1,3-benzoxazol-2-amine] | 100% | 90% | 100% | 100% | 100% | 100% | 100% |  | 100% | 
C[C@H](Nc1nc2cc(S(F)(F)(F)(F)F)cc(Cl)c2o1)c1ncnn1-c1ncc(Br)cn1 [Example I-083, N-{(1S)-1-[1-(5-Brompyrimidin-2-yl)-1H-1,2,4-triazol-5-yl]ethyl}-7-chlor-5-(pentafluor-lambda^6-sulfanyl)-1,3-benzoxazol-2-amin] |  | 100% |  |  | 100% |  |  | 100% | 80% | 80%
CC(Nc1nc2cc(C#N)cc(Cl)c2o1)c1ncnn1-c1ncccn1 (stereo not drawn) [Example I-084, 7-Chlor-2-({1-[1-(pyrimidin-2-yl)-1H-1,2,4-triazol-5-yl]ethyl}amino)-1,3-benzoxazol-5-carbonitril] |  | 80% | 100% | 100% | 80% | 100% |  |  |  | 100%
C[C@H](Nc1nc2cc(C(F)(F)F)c(Cl)cn2n1)c1ncnn1-c1ncccn1 [Example I-096, 6-chloro-N-{(1S)-1-[1-(pyrimidin-2-yl)-1H-1,2,4-triazol-5-yl]ethyl}-7-(trifluoromethyl)[1,2,4]triazolo[1,5-a]pyridin-2-amine] |  | 90% |  |  | 100% |  | 100% |  |  | 100%
C[C@H](Nc1nc2cc(C3CC3)cc(Cl)c2o1)c1ncnn1-c1ncccn1 [Example I-065, 7-Chlor-5-cyclopropyl-N-{(1S)-1-[1-(pyrimidin-2-yl)-1H-1,2,4-triazol-5-yl]ethyl}-1,3-benzoxazol-2-amin] |  |  | 100% | 100% | 100% | 100% | 100% |  | 100% | 100%
C[C@H](Nc1nc2cc(C(F)(F)F)cc(Cl)c2o1)c1ncnn1-c1ccncn1 [Example I-047, 7-Chlor-N-{(1S)-1-[1-(pyrimidin-4-yl)-1H-1,2,4-triazol-5-yl]ethyl}-5-(trifluormethyl)-1,3-benzoxazol-2-amin] | 100% | 100% | 100% | 100% | 100% | 100% |  | 100% | 100% | 
C[C@H](Nc1nc2cc(Cl)c(C(F)(F)F)cn2n1)c1ncnn1-c1ncccn1 [Example I-097, 7-chloro-N-{(1S)-1-[1-(pyrimdin-2-yl)-1H-1,2,4-triazol-5-yl]ethyl}-6-(trifluoromethyl)[1,2,4]triazolo[1,5-a]pyridin-2-amine] |  | 100% |  |  | 80% |  |  |  |  | 100%
Cc1cnc(-n2ncnc2[C@H](C)Nc2nc3cc(C(F)(F)F)cc(Cl)c3o2)nc1 [Example I-040, 7-Chlor-N-{(1S)-1-[1-(5-methylpyrimidin-2-yl)-1H-1,2,4-triazol-5-yl]ethyl}-5-(trifluormethyl)-1,3-benzoxazol-2-amin] |  | 90% | 100% |  | 100% |  | 100% |  | 100% | 100%
